Legend:
Format in all cases: in vivo
[1] = system: blackgrass (Alopecurus myosuroides); experiment: Test C preemergence, blackgrass; conditions: 0 is no effect, 100 is complete control
Outline: (§1)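 Herbicidal effect was estimated visually on a 0–100 scale 10 or 12 days after spraying. Formulation: non-phytotoxic solvent mixture with surfactant. Timing: directed soil spray after sowing, or postemergence on seedlings bearing one or two leaves.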

[2] = system: corn (Zea mays); experiment: Test C preemergence, corn; conditions: 0 is no effect, 100 is complete control
Outline: (§2)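 Pre: soil sprayed at seeding. Post: seedlings treated at 1–2 leaves (2–10 cm). Vehicle non-phytotoxic solvent mix with surfactant; loam–sand medium; greenhouse; visual injury read at 10 or 12 days, scale 0–100.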

[3] = system: foxtail, giant (giant foxtail, Setaria faberi); experiment: Test C preemergence, giant foxtail; conditions: 0 is no effect, 100 is complete control
Outline: as §1

[4] = system: oat, wild (wild oat, Avena fatua); experiment: Test C preemergence, wild oat; conditions: 0 is no effect, 100 is complete control
Outline: as §1

[5] = system: ragweed (common ragweed, Ambrosia artemisiifolia); experiment: Test C preemergence, ragweed; conditions: 0 is no effect, 100 is complete control
Outline: as §2

[6] = system: wheat (Triticum aestivum); experiment: Test C preemergence, wheat; conditions: 0 is no effect, 100 is complete control
[7] = system: goosegrass (Eleusine indica); experiment: Test C postemergence, goosegrass; conditions: for Goosegrass plant response rating: visual injury, 0 to 100 scale (0 no effect, 100 complete control); for Plant response rating (0 to 100 scale), Goosegrass: 0 is no effect, 100 is complete control
Outline: as §1

[8] = system: kochia (Bassia scoparia); experiment: Test C postemergence, kochia; conditions: for Kochia plant response rating: visual injury, 0 to 100 scale (0 no effect, 100 complete control); for Plant response rating (0 to 100 scale), Kochia: 0 is no effect, 100 is complete control
Outline: as §1

[9] = system: barnyardgrass (Echinochloa crusgalli); experiment: Test D flooded paddy test, barnyardgrass; set-up: key: 0 = no effect, 100 = complete control; conditions: 250 g ai/ha, Flood; applied to paddy water at 2-leaf stage; visual rating after 13 days; scale 0 (no effect) to 100 (complete control)
Outline: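 2-leaf plants; flood 3 cm over soil; cpd into paddy water; depth maintained; greenhouse 13 d; visual rating vs controls, 0 = no effect, 100 = complete control; dash = no result.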

SMILES	Plant response rating (0 to 100 scale), Blackgrass ([1]; 31 g ai/ha Preemergence)	Plant response rating (0 to 100 scale), Blackgrass ([1]; 125 g ai/ha Preemergence)	Plant response rating (0 to 100 scale), Corn ([2]; 31 g ai/ha Preemergence)	Plant response rating (0 to 100 scale), Corn ([2]; 125 g ai/ha Preemergence)	Plant response rating (0 to 100 scale), Foxtail, Giant ([3]; 31 g ai/ha Preemergence)	Plant response rating (0 to 100 scale), Foxtail, Giant ([3]; 125 g ai/ha Preemergence)	Plant response rating (0 to 100 scale), Oat, Wild ([4]; 31 g ai/ha Preemergence)	Plant response rating (0 to 100 scale), Oat, Wild ([4]; 125 g ai/ha Preemergence)	Plant response rating (0 to 100 scale), Ragweed ([5]; 31 g ai/ha Preemergence)	Plant response rating (0 to 100 scale), Ragweed ([5]; 125 g ai/ha Preemergence)	Plant response rating (0 to 100 scale), Wheat ([6]; 31 g ai/ha Preemergence)	Plant response rating (0 to 100 scale), Wheat ([6]; 125 g ai/ha Preemergence)	Goosegrass plant response rating ([7]; 31 g ai/ha Postemergence)	Goosegrass plant response rating ([7]; 125 g ai/ha Postemergence)	Kochia plant response rating ([8]; 31 g ai/ha Postemergence)	Kochia plant response rating ([8]; 125 g ai/ha Postemergence)	Plant response rating, Barnyardgrass [9]	Plant response rating (0 to 100 scale), Goosegrass ([7]; 125 g ai/ha Postemergence)	Plant response rating (0 to 100 scale), Kochia ([8]; 125 g ai/ha Postemergence)
C=C(C)COC1CCN(c2cc(NS(=O)(=O)C(F)(F)F)c(C)cc2C)C1=O (stereo not drawn) [Compound 59]	70	90	40	100	100	100	80	100	50	70	40	100	70	90	70	80	60	–	–
Cc1c(NS(=O)(=O)C(F)(F)F)cc(N2CCC(OC3CCC3)C2=O)c(C)c1C (stereo not drawn) [Compound 45]	60	90	90	100	100	100	80	90	80	100	60	100	70	90	70	100	95	–	–
C=CCO/N=C1\CCN(c2cc(NS(=O)(=O)C(F)(F)F)c(C)cc2C)C1=O [Compound 11]	60	100	50	100	100	100	30	100	80	90	90	100	90	–	40	–	25	100	90
CC(=O)N(c1cc(N2CCC(OC3CC3)C2=O)c(C)cc1Cl)S(=O)(=O)C(F)(F)F (stereo not drawn) [Compound 38]	80	90	20	80	80	100	30	100	70	90	40	90	30	–	80	–	0	90	90
C#CCO/N=C1\CCN(c2cc(NS(=O)(=O)C(F)(F)F)c(C)cc2C)C1=O [Compound 13, N-[2,4-dimethyl-5-[2-oxo-3-[(2-propyn-1-yloxy)imino]-1-pyrrolidinyl]phenyl]-1,1,1-trifluoromethanesulfonamide]	90	100	40	100	100	100	100	100	50	100	90	100	70	–	90	–	10	100	90
Cc1c(NS(=O)(=O)C(F)(F)F)cc(N2CCC(OCC3CC3)C2=O)c(C)c1F (stereo not drawn) [Compound 63]	70	90	30	100	100	100	70	100	90	100	80	100	0	90	80	90	45	–	–

Source: patent US20240158348A1, “HERBICIDAL CYCLIC AMIDES N-SUBSTITUTED WITH A HALOALKYLSULFONYLANILIDE GROUP” (FMC Corporation, priority 2021, published 2024)
